# Key:
# [1] = molecular target: T1, E. coli class Ia RNR α subunit (W28A-α2) (Escherichia coli, UniProt P00452, W28A); test: […] Å crystal structure with ATP; assay type: binding
# T1 construct: gene nrdA; His6-W28A-α2
# T1 sequence (P00452 1-761 W28A): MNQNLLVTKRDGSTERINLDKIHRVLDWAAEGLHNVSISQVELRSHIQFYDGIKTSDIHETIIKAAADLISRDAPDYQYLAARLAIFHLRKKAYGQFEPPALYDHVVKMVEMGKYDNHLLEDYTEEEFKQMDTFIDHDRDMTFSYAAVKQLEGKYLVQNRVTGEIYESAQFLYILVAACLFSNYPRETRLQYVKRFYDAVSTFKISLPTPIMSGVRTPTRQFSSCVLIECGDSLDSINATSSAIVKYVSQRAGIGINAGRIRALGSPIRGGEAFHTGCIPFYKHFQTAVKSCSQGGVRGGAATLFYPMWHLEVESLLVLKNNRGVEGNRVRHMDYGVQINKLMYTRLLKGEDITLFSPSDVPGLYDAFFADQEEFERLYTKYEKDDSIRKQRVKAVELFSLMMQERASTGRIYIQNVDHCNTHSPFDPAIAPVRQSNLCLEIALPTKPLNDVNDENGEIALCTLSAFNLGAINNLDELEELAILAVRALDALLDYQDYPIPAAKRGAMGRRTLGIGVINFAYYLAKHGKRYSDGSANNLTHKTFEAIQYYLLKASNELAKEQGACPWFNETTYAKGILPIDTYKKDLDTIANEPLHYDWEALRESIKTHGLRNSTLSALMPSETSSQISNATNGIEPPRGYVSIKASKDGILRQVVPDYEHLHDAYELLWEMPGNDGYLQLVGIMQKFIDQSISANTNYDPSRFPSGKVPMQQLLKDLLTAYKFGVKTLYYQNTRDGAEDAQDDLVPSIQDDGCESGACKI
# T1 sequence (P69924 2-376 partner): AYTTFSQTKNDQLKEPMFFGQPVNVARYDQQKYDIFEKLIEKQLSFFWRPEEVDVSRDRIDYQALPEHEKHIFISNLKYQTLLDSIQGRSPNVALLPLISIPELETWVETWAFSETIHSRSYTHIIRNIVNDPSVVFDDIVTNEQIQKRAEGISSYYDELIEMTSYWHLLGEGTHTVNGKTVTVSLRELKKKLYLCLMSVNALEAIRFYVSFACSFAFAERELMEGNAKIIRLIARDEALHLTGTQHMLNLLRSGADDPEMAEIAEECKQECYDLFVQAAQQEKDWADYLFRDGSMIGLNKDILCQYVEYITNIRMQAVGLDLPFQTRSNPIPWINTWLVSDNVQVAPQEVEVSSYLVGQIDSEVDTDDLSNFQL
# [2] = molecular target: T1, E. coli class Ia RNR α subunit (W28A-α2); test: […] Å crystal structure W28A-α2-dATP/GTP; inhibition in activity assay; assay type: binding
SMILES,2.6 Å crystal structure with ATP [1],3.55 Å crystal structure W28A-α2-dATP/GTP; inhibition in activity assay [2]
Nc1ccn([C@@H]2O[C@H](COP(=O)(O)OP(=O)(O)O)[C@@H](O)[C@H]2O)c(=O)n1 [CDP],provides a higher-resolution picture of the active site bound to the CDP/ATP substrate/effector pair,
Nc1ncnc2c1ncn2[C@H]1C[C@H](O)[C@@H](COP(=O)(O)OP(=O)(O)OP(=O)(O)O)O1 [dATP],,dATP was placed in the specificity site based on omit maps.

# Reference: PMC11447812, “How ATP and dATP Act as Molecular Switches to Regulate Enzymatic Activity in the Prototypical Bacterial Class Ia Ribonucleotide Reductase” (Biochemistry, 2024)
